Experimental data taken from patent publication US10738030B2, “Modulators of cystic fibrosis transmembrane conductance regulator” (Vertex Pharmaceuticals Incorporated, priority 2016, dated 2020).

Target: T1, F508del (Homo sapiens, UniProt P13569, DEL508-508)
T1 construct: expressed in transfected cells
Assay: Membrane potential optical assay (FRET voltage-sensor dyes), identification of correction compounds
Assay type: cell-based
Conditions: NIH3T3 cells stably expressing F508del, procedures described above; for Emax: maximum efficacy, read-out: Max Efficacy; for EC50: modulation of CFTR activity
Protocol: (§1) NIH3T3 mouse fibroblasts stably expressing F508del are used for optical measurements of membrane potential. The cells are maintained at 37° C. in 5% CO2 and 90% humidity in Dulbecco's modified Eagle's medium supplemented with 2 mM glutamine, 10% fetal bovine serum, 1×NEAA, β-ME, 1× pen/strep, and 25 mM HEPES in 175 cm^2 culture flasks. For all optical assays, the cells were seeded at 12,000 cells/well in 384-well matrigel-coated plates and cultured for 18-24 hrs at 37° C. for the potentiator assay. For the correction assays, the cells are cultured at 37° C. with and without compounds for 18-24 hours.
Membrane potential optical methods for assaying F508del modulation properties of compounds.
The optical membrane potential assay utilized voltage-sensitive FRET sensors described by Gonzalez and Tsien (See Gonzalez, J. E. and R. Y. Tsien (1995) “Voltage sensing by fluorescence resonance energy transfer in single cells” Biophys J 69(4): 1272-80, and Gonzalez, J. E. and R. Y. Tsien (1997) “Improved indicators of cell membrane potential that use fluorescence resonance energy transfer” Chem Biol 4(4): 269-77) in combination with instrumentation for measuring fluorescence changes such as the Voltage/Ion Probe Reader (VIPR) (See, Gonzalez, J. E., K. Oades, et al. (1999) “Cell-based assays and instrumentation for screening ion-channel targets” Drug Discov Today 4(9): 431-439).
These voltage sensitive assays are based on the change in fluorescence resonant energy transfer (FRET) between the membrane-soluble, voltage-sensitive dye, DiSBAC2(3), and a fluorescent phospholipid, CC2-DMPE, which is attached to the outer leaflet of the plasma membrane and acts as a FRET donor. Changes in membrane potential (Vm) cause the negatively charged DiSBAC2(3) to redistribute across the plasma membrane and the amount of energy transfer from CC2-DMPE changes accordingly. The changes in fluorescence emission were monitored using VIPR™ II, which is an integrated liquid handler and fluorescent detector designed to conduct cell-based screens in 96- or 384-well microtiter plates.
To identify small molecules that correct the trafficking defect associated with F508del; a single-addition HTS assay format was developed. The cells were incubated in serum-free medium for 16 hrs at 37° C. in the presence or absence (negative control) of test compound. As a positive control, cells plated in 384-well plates were incubated for 16 hrs at 27° C. to “temperature-correct” F508del. The cells were subsequently rinsed 3× with Krebs Ringers solution and loaded with the voltage-sensitive dyes. To activate F508del, 10 μM forskolin and the CFTR potentiator, genistein (20 μM), were added along with Cl^−-free medium to each well. The addition of Cl^−-free medium promoted Cl^− efflux in response to F508del activation and the resulting membrane depolarization was optically monitored using the FRET-based voltage-sensor dyes.
• Bath Solution #1: (in mM) NaCl 160, KCl 4.5, CaCl2 2, MgCl2 1, HEPES 10, pH 7.4 with NaOH. • Chloride-free bath solution: Chloride salts in Bath Solution #1 (above) are substituted with gluconate salts. • CC2-DMPE: Prepared as a 10 mM stock solution in DMSO and stored at −20° C. • DiSBAC2(3): Prepared as a 10 mM stock in DMSO and stored at −20° C. Cell Culture
as §1, with “seeded at 30,000/well in 384-well” for “seeded at 12,000 cells/well in 384-well”, “cultured for 2 hrs at” for “cultured for 18-24 hrs at”, “37° C. before culturing at 27° C. for 24 hrs for the” for “37° C. for the”, “cultured at 27° C. or 37° C.” for “cultured at 37° C.”, “compounds for 16-24 hours.” for “compounds for 18-24 hours.”

T1 sequence (P13569 with tags, fused parts or gaps DEL508-508): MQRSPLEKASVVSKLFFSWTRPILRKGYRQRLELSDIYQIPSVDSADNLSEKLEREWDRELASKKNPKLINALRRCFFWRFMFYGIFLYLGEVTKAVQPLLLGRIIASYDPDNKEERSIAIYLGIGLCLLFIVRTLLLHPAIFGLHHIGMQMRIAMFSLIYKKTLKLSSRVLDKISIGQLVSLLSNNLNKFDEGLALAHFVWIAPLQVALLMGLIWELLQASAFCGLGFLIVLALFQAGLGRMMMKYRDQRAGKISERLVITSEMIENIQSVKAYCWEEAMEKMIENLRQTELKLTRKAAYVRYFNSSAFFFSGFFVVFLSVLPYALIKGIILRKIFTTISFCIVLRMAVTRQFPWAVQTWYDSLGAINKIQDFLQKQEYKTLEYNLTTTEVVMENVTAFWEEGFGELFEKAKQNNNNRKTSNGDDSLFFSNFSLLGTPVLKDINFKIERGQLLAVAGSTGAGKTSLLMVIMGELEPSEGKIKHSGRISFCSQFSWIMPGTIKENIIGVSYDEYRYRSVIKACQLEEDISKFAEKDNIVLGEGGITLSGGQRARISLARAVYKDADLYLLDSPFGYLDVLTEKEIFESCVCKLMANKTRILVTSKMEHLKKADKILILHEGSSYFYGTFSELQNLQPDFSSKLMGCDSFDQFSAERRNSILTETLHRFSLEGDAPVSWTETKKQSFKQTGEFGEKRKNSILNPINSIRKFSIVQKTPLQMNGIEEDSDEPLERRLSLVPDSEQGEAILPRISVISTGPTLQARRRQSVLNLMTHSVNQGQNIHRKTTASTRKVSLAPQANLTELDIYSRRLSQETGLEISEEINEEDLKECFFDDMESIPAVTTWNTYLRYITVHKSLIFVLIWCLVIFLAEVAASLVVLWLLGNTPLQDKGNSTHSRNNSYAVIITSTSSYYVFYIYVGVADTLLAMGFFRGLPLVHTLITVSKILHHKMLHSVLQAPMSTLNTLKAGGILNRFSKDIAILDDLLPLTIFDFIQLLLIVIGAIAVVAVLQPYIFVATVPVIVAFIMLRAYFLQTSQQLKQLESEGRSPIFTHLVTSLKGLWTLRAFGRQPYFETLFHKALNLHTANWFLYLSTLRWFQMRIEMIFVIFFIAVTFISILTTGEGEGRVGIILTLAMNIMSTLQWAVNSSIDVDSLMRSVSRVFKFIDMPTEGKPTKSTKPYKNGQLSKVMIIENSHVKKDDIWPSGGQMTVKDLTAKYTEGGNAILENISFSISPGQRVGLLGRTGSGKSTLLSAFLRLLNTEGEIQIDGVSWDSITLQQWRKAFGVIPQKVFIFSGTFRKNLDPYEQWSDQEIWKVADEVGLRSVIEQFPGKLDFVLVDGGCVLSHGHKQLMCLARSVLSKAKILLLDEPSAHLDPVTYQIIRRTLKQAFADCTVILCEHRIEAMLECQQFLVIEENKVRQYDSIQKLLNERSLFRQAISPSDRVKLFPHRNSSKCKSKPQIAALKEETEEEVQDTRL

Row | Compound | Emax [%] | EC50 [µM]
1 | COCC(C)Oc1nc(-c2cc(F)cc(OCC(C)C)c2)ccc1C(=O)NS(=O)(=O)c1cccc(N)n1 (centres unmarked) [Compound 23, N-[(6-amino-2-pyridyl)sulfonyl]-6-(3-fluoro-5-isobutoxy-phenyl)-2-(2-methoxy-1-methyl-ethoxy)pyridine-3-carboxamide] | 30 to 80 | 3 to 10
2 | CC(C)COc1cc(F)cc(-c2ccc(C(=O)NS(=O)(=O)c3cccc(N)n3)c(OC(C)CC(C)C)n2)c1 (centres unmarked) [Compound 24, N-[(6-amino-2-pyridyl)sulfonyl]-2-(1,3-dimethylbutoxy)-6-(3-fluoro-5-isobutoxy-phenyl)pyridine-3-carboxamide] | > 80 | < 3
3 | CC(C)COc1cc(F)cc(-c2ccc(C(=O)NS(=O)(=O)c3cccc(N)n3)c(OC(C)C(C)(C)C)n2)c1 (centres unmarked) [Compound 25, N-[(6-amino-2-pyridyl)sulfonyl]-6-(3-fluoro-5-isobutoxy-phenyl)-2-(1,2,2-trimethylpropoxy)pyridine-3-carboxamide] | 30 to 80 | < 3
4 | CC(C)COc1cc(F)cc(-c2ccc(C(=O)NS(=O)(=O)c3cccc(N)n3)c(OC(C(C)C)C(C)C)n2)c1 [Compound 26, N-[(6-amino-2-pyridyl)sulfonyl]-6-(3-fluoro-5-isobutoxy-phenyl)-2-(1-isopropyl-2-methyl-propoxy)pyridine-3-carboxamide] | 30 to 80 | < 3
5 | CCCOc1nc(-c2cc(F)cc(OCC(C)C)c2)ccc1C(=O)NS(=O)(=O)c1cccc(N)n1 [Compound 27, N-[(6-amino-2-pyridyl)sulfonyl]-6-(3-fluoro-5-isobutoxy-phenyl)-2-propoxy-pyridine-3-carboxamide] | > 80 | < 3
6 | C/C=C/COc1nc(-c2cc(F)cc(OCC(C)C)c2)ccc1C(=O)NS(=O)(=O)c1cccc(N)n1 [Compound 28, N-[(6-amino-2-pyridyl)sulfonyl]-2-[(E)-but-2-enoxy]-6-(3-fluoro-5-isobutoxy-phenyl)pyridine-3-carboxamide] | 30 to 80 | < 3
7 | CC[C@H](C)Oc1nc(-c2cc(F)cc(OCC(C)C)c2)ccc1C(=O)NS(=O)(=O)c1cccc(N)n1 [Compound 29, N-[(6-amino-2-pyridyl)sulfonyl]-6-(3-fluoro-5-isobutoxy-phenyl)-2-[(1S)-1-methylpropoxy]pyridine-3-carboxamide] | 30 to 80 | < 3
8 | CCOc1nc(-c2cc(F)cc(OCC(C)C)c2)ccc1C(=O)NS(=O)(=O)c1cccc(N)n1 [Compound 30, N-[(6-amino-2-pyridyl)sulfonyl]-2-ethoxy-6-(3-fluoro-5-isobutoxy-phenyl)pyridine-3-carboxamide] | 30 to 80 | < 3
9 | CC(C)COc1cc(F)cc(-c2ccc(C(=O)NS(=O)(=O)c3cccc(N)n3)c(N(C)C(C)C)n2)c1 [Compound 31, N-[(6-amino-2-pyridyl)sulfonyl]-6-(3-fluoro-5-isobutoxy-phenyl)-2-[isopropyl(methyl)amino]pyridine-3-carboxamide] | > 80 | < 3
10 | CC(C)COc1cc(F)cc(-c2ccc(C(=O)NS(=O)(=O)c3cccc(N)n3)c(OCC(C)(C)C)n2)c1 [Compound 32, N-[(6-amino-2-pyridyl)sulfonyl]-2-(2,2-dimethylpropoxy)-6-(3-fluoro-5-isobutoxy-phenyl)pyridine-3-carboxamide] | > 80 | < 3
11 | CC(C)COc1cc(F)cc(-c2ccc(C(=O)NS(=O)(=O)c3cccc(N)n3)c(OC(C(F)(F)F)C(F)(F)F)n2)c1 [Compound 33, N-[(6-amino-2-pyridyl)sulfonyl]-6-(3-fluoro-5-isobutoxy-phenyl)-2-[2,2,2-trifluoro-1-(trifluoromethyl)ethoxy]pyridine-3-carboxamide] | 30 to 80 | < 3
12 | CCC(Oc1nc(-c2cc(F)cc(OCC(C)C)c2)ccc1C(=O)NS(=O)(=O)c1cccc(N)n1)C(C)(C)C (centres unmarked) [Compound 34] | > 80 | < 3
13 | CC#CCCOc1nc(-c2cc(F)cc(OCC(C)C)c2)ccc1C(=O)NS(=O)(=O)c1cccc(N)n1 [Compound 35, N-[(6-amino-2-pyridyl)sulfonyl]-6-(3-fluoro-5-isobutoxy-phenyl)-2-pent-3-ynoxy-pyridine-3-carboxamide] | 30 to 80 | < 3
14 | CC(C)COc1cc(F)cc(-c2ccc(C(=O)NS(=O)(=O)c3cccc(N)n3)c(OC(C)CC(C)(C)C)n2)c1 (centres unmarked) [Compound 36, N-[(6-amino-2-pyridyl)sulfonyl]-6-(3-fluoro-5-isobutoxy-phenyl)-2-(1,3,3-trimethylbutoxy)pyridine-3-carboxamide] | 30 to 80 | < 3
15 | CC(C)=C(C)c1nc(-c2cc(F)cc(OCC(C)C)c2)ccc1C(=O)NS(=O)(=O)c1cccc(N)n1 [Compound 37, N-[(6-amino-2-pyridyl)sulfonyl]-2-(1,2-dimethylprop-1-enyl)-6-(3-fluoro-5-isobutoxy-phenyl)pyridine-3-carboxamide] | 30 to 80 | < 3
16 | CC(C)COc1cc(F)cc(-c2ccc(C(=O)NS(=O)(=O)c3cccc(N)n3)c(OCC(F)F)n2)c1 [Compound 38, N-[(6-amino-2-pyridyl)sulfonyl]-2-(2,2-difluoroethoxy)-6-(3-fluoro-5-isobutoxy-phenyl)pyridine-3-carboxamide] | 30 to 80 | 3 to 10
17 | CCCNc1cccc(S(=O)(=O)NC(=O)c2ccc(-c3cc(F)cc(OCC(C)C)c3)nc2NCCC)n1 [Compound 39, 6-(3-fluoro-5-isobutoxy-phenyl)-2-(propylamino)-N-[[6-(propylamino)-2-pyridyl]sulfonyl]pyridine-3-carboxamide] | 30 to 80 | < 3
18 | CCC(Oc1nc(-c2cc(F)cc(OCC(C)C)c2)ccc1C(=O)NS(=O)(=O)c1cccc(N)n1)C(C)C (centres unmarked) [Compound 40, N-[(6-amino-2-pyridyl)sulfonyl]-2-(1-ethyl-2-methyl-propoxy)-6-(3-fluoro-5-isobutoxy-phenyl)pyridine-3-carboxamide] | 30 to 80 | < 3
19 | CC(C)COc1cc(F)cc(-c2ccc(C(=O)NS(=O)(=O)c3cccc(N)n3)c(N(C(C)C)C(C)C)n2)c1 [Compound 41, N-[(6-amino-2-pyridyl)sulfonyl]-2-(diisopropylamino)-6-(3-fluoro-5-isobutoxy-phenyl)pyridine-3-carboxamide] | > 80 | < 3
20 | C=CC(C)Oc1nc(-c2cc(F)cc(OCC(C)C)c2)ccc1C(=O)NS(=O)(=O)c1cccc(N)n1 (centres unmarked) [Compound 42, N-[(6-amino-2-pyridyl)sulfonyl]-6-(3-fluoro-5-isobutoxy-phenyl)-2-(1-methylallyloxy)pyridine-3-carboxamide] | > 80 | < 3
21 | C=CCOc1nc(-c2cc(F)cc(OCC(C)C)c2)ccc1C(=O)NS(=O)(=O)c1cccc(N)n1 [Compound 43, 2-allyloxy-N-[(6-amino-2-pyridyl)sulfonyl]-6-(3-fluoro-5-isobutoxy-phenyl)pyridine-3-carboxamide] | 30 to 80 | < 3
22 | CCC(C)(C)Oc1nc(-c2cc(F)cc(OCC(C)C)c2)ccc1C(=O)NS(=O)(=O)c1cccc(N)n1 [Compound 44, N-[(6-amino-2-pyridyl)sulfonyl]-2-(1,1-dimethylpropoxy)-6-(3-fluoro-5-isobutoxy-phenyl)pyridine-3-carboxamide] | > 80 | < 3
